Legend:
Type in all cases: cell-based
human GLUT1 = target: T1, human GLUT1 (Homo sapiens, UniProt P11166); assay: [3H]-deoxy-D-glucose uptake assay, GLUT1; settings: [3H]-deoxy-D-glucose uptake in HEK293 cells stably expressing human GLUT1
T1 construct: expressed in transfected cells
T1 sequence (P11166 1-492): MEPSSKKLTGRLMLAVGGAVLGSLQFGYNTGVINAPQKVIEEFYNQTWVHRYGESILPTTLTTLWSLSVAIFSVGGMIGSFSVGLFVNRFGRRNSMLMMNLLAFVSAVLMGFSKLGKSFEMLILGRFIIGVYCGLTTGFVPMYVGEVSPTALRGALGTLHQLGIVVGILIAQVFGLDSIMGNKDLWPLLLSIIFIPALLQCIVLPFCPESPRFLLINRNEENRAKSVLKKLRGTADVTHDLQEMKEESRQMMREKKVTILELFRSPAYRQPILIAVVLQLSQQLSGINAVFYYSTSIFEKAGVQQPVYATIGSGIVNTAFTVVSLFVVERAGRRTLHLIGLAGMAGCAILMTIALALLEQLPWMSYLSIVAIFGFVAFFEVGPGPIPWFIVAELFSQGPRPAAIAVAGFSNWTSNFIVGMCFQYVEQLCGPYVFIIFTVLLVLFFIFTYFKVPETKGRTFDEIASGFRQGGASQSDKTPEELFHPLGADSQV
Summary of the method: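 HEK293 cells stably overexpressing human GLUT1 or GLUT2, seeded at 60,000 per well, treated with compounds in glucose-free uptake buffer for 30 min at 37 °C. [3H]-deoxy-D-glucose uptake quantified by scintillation counting after ice-cold PBS washes; IC50 determined.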

human GLUT2 = target: T2, human GLUT2 (Homo sapiens, UniProt P11168); assay: [3H]-deoxy-D-glucose uptake assay, GLUT2; settings: [3H]-deoxy-D-glucose uptake in HEK293 cells stably expressing human GLUT2
T2 construct: expressed in transfected cells
T2 sequence (P11168 1-524): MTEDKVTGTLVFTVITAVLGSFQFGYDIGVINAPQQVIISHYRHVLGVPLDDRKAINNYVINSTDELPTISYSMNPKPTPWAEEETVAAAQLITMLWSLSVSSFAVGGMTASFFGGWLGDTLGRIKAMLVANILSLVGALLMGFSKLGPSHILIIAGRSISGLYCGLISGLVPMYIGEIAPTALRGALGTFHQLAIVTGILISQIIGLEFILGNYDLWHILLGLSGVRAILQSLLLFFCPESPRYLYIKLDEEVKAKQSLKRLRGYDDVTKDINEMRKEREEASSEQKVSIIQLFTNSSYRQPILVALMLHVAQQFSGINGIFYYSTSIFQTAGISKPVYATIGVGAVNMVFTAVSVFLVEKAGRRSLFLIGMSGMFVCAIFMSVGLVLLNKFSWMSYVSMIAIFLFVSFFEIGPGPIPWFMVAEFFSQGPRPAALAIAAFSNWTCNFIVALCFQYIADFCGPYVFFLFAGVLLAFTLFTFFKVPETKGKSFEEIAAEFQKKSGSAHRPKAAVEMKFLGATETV
Method: (§1) HEK293 cells were engineered to stably express either human GLUT1, GLUT2, GLUt3 or GLUT4 by transfection with the pReceiver-Lv105 plasmid, containing either hGLUT1, hGLUT2, hGLUT3, or hGLUT4 gene constructs with lipofectamine 2000, hGLUT1- hGLUT2- hGLUT3- or hGLUT4-overexpressing polyclonal populations were isolated under purinomycin selective pressure (1 μg/ml) and maintained in Dulbecco's modified Eagle's medium supplemented with 1 μg/ml purinomycin+10% foetal bovine serum (FBS).
60,000 cells per well were seeded overnight into poly-D-lysine coasted 96-well plates. […] 90 μl of test compounds were added in glucose-free uptake buffer and cells were incubated at 37° C. for 30 min.
(§2) Cells were then washed twice with ice-cold PBS and 100 μl of Microscint-20 was added per well. Glucose uptake was quantified with a scintillation counter. The half maximal inhibitory concentration (IC50) (a measure of the effectiveness of the test compound in inhibiting glucose uptake) was determined.

human GLUT3 = target: T3, human GLUT3 (Homo sapiens, UniProt P11169); assay: [3H]-deoxy-D-glucose uptake assay, GLUT3; settings: [3H]-deoxy-D-glucose uptake in HEK293 cells stably expressing human GLUT3
T3 construct: expressed in transfected cells
T3 sequence (P11169 1-496): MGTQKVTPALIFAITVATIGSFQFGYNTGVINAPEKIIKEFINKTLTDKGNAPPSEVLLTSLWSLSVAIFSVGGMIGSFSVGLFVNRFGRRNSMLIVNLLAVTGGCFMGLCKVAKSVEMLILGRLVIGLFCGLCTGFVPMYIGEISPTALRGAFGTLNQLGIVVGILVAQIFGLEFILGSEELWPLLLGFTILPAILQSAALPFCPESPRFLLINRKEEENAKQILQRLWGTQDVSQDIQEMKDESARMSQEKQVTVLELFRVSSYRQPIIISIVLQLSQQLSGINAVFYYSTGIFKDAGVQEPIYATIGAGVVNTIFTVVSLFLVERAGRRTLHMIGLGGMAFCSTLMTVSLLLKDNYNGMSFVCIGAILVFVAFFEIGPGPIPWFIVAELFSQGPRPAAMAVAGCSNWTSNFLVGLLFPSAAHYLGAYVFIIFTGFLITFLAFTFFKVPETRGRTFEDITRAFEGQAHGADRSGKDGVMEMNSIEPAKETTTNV
Method: as §1
(§3) 60,000 cells per well were seeded overnight into poly-D-lysine coasted 96-well plates. Following media removal, cells were washed twice in warm glucose-free uptake buffer (25 mM HEPES/KOH pH 7.4, 125 mM NaCl, 4.8 mM KCl, 1.2 mM MgSO4, 1.2 mM CaCl2, 1.2 mM KH2PO4). 90 μl of test compounds were added in glucose-free uptake buffer and cells were incubated at 37° C. for 30 min. 10 μl of [3H]-deoxy-D-glucose (0.25 μCi, 125 μM final assay concentration) was then added per well in glucose-free uptake buffer and uptake was allowed to proceed at 37° C. for 30 min.
as §2

human GLUT4 = target: T4, human GLUT4 (Homo sapiens, UniProt P14672); assay: [3H]-deoxy-D-glucose uptake assay, GLUT4; settings: [3H]-deoxy-D-glucose uptake in HEK293 cells stably expressing human GLUT4
T4 construct: expressed in transfected cells
T4 sequence (P14672 1-509): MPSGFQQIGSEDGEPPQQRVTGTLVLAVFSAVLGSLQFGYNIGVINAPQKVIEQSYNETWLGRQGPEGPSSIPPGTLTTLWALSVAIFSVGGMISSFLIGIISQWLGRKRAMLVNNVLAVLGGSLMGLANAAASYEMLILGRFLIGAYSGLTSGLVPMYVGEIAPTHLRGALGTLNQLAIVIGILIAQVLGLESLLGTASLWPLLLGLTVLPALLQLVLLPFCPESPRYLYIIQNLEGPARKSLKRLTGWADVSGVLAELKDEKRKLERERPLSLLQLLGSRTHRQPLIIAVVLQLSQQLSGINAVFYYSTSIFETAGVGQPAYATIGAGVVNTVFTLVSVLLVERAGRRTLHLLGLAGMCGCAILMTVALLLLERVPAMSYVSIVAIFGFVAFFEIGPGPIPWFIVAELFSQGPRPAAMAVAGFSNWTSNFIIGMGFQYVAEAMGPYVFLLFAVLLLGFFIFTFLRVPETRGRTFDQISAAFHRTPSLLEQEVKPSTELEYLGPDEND
Method: as §1, §3, §2

SMILES	GLUT1 pIC50 (human GLUT1)	GLUT2 pIC50 (human GLUT2)	GLUT3 pIC50 (human GLUT3)	GLUT4 pIC50 (human GLUT4)
O=C(c1ccncc1)N1CCN(Cc2c(-c3ccc(Cl)cc3)nc3cnc(C4CC4)cn23)CC1 [Compound 265]	+++ (pIC50 ≧ 6.00)	+++ (pIC50 ≧ 6.00)	+++ (pIC50 ≧ 6.00)	+++ (pIC50 ≧ 6.00)
CC(=O)N1CCN(Cc2c(-c3ccc(Cl)cc3Cl)nc3cnc(C4CC4)cn23)CC1 [Compound 271]	+++ (pIC50 ≧ 6.00)	+++ (pIC50 ≧ 6.00)	+++ (pIC50 ≧ 6.00)	+++ (pIC50 ≧ 6.00)
O=C(c1cnccn1)N1CCN(Cc2c(-c3ccc(Cl)cc3Cl)nc3cnc(C4CC4)cn23)CC1 [Compound 273]	+++ (pIC50 ≧ 6.00)	+++ (pIC50 ≧ 6.00)	+++ (pIC50 ≧ 6.00)	+++ (pIC50 ≧ 6.00)
CC(=O)N1CCN(Cc2c(-c3ccc(Cl)cc3Cl)nc3ccc(N4CCCCS4(=O)=O)cn23)CC1 [Compound 354]	+++ (pIC50 ≧ 6.00)	+++ (pIC50 ≧ 6.00)	–	–
CS(=O)(=O)Nc1ccc2nc(-c3ccc(Cl)cc3Cl)c(CN3CCOCC3)n2c1 [Compound 357]	+++ (pIC50 ≧ 6.00)	++ (pIC50 5.00-5.99)	–	–
CC(=O)N1CCN(Cc2c(-c3ccc(Cl)cc3Cl)nc3cnc(C(C)C)cn23)CC1 [Compound 358]	+++ (pIC50 ≧ 6.00)	+++ (pIC50 ≧ 6.00)	–	–
CS(=O)(=O)Nc1ccc2nc(-c3ccc(Cl)cc3Cl)c(CN3CCNC(=O)C3)n2c1 [Compound 359]	+++ (pIC50 ≧ 6.00)	++ (pIC50 5.00-5.99)	–	–
CS(=O)(=O)Nc1ccc2nc(-c3ccc(Cl)cc3Cl)c(CN3CCCOCC3)n2c1 [Compound 362]	+++ (pIC50 ≧ 6.00)	++ (pIC50 5.00-5.99)	–	–
O=S1(=O)CCN(Cc2c(-c3ccc(Cl)cc3)nc3ccc(-c4ccccc4)cn23)CC1 [Compound 364]	++ (pIC50 5.00-5.99)	+− (pIC50 < 4.00)	–	–
CS(=O)(=O)c1ccc2nc(-c3ccc(Cl)cc3)c(CN3CCOCC3)n2c1 [Compound 379]	++ (pIC50 5.00-5.99)	+− (pIC50 < 4.00)	–	–
CC(=O)N1CCN(Cc2c(-c3ccc(Cl)cc3)nc3ccc(S(=O)(=O)N4CCCC4)cn23)CC1 [Compound 383]	+++ (pIC50 ≧ 6.00)	++ (pIC50 5.00-5.99)	–	–
CCNS(=O)(=O)c1ccc2nc(-c3ccc(Cl)cc3)c(CN3CCN(C(C)=O)CC3)n2c1 [Compound 384]	+++ (pIC50 ≧ 6.00)	++ (pIC50 5.00-5.99)	–	–
